The text below walks through data of patent US7348347B2, “Substituted 4,5,6,7-tetrahydrobenzthiazol-2-ylamine compounds” (Gruenenthal GmbH, priority 2004, dated 2008).

For the test, the target named is T1, 5-HT uptake (Rattus norvegicus, UniProt P31652).
T1 construct: from tissue; host or cells: rat brain synaptosomes (P2 fraction) from marrow (medulla) and pons
Kind of test: Inhibition of 5-HT uptake in rat brain synaptosomes. It is filed as biochemical. The note with it: [3H]-5-HT. As for the experimental part: The relevant literature reference is enclosed herein by reference and is to be regarded as part of the disclosure.
The homogenate is centrifuged at 4° C. for 10 minutes at 1000 g. Following subsequent centrifugation at 17,000 g for 55 minutes, the synaptosomes (P2 fraction) are obtained, which are then resuspended in 0.32 M […] (0.5 mL/100 mg of the original weight).
The respective uptake was measured in a 96 well microtiter plate. The volume was 250 μL and the incubation was carried out at room temperature (ca 20-25° C.) under a blanket of oxygen.
The 96 samples through were then filtered through a Unifilter GF/B® microtiter plate (Packard) and washed with 200 mL of incubated buffer with the aid of a “Brabdel Cell-Harvester MPXRI 96T”. The Unifilter GF/B plate was dried at 55° C. over a period of 1 h. The plate was then sealed with a back seal® (Packard) and there were then added 35 μL of scintillant fluid per well (Ultima Gold, Packard).
A detailed description of the method is disclosed in the literature, for example, in M. Ch.

[1] abbreviates: rat synaptosomes (medulla and pons).

T1 sequence (P31652 whole entry): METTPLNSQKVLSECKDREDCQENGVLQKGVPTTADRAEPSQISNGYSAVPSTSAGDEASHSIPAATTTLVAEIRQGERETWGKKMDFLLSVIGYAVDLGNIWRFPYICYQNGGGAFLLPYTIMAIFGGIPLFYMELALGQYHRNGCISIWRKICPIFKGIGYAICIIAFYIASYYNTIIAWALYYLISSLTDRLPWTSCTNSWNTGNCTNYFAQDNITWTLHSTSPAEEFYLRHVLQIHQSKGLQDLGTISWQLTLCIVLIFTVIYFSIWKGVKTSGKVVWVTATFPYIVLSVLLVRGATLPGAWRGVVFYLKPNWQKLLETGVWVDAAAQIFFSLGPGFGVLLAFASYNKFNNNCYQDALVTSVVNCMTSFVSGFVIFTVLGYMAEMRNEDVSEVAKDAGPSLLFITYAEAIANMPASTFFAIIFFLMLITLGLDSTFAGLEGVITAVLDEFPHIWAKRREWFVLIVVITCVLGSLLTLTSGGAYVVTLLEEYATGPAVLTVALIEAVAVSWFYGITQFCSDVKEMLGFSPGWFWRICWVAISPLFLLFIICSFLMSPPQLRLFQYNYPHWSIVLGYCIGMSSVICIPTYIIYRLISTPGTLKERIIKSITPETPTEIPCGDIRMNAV

As for “2-[2-(3,5-Difluorophenyl)acetylamino]-4,5,6,7-tetrahydrobenzthiazol-4-carboxylic acid[1-(2-ethoxybenzyl)pyrrolidin-3-yl]methylamide [Example 44]”, the “% Inhibition of 5-HT uptake [10 μM]” value (rat synaptosomes (and pons)) was 41%.
Regarding `CN(C)CCN1CCN(C(=O)C2CCCc3sc(NC(=O)CC4CCCCC4)nc32)CC1` (centres unmarked) [Example 1, 2-Cyclohexyl-N-{4-[4-(2-Dimethylaminoethyl)piperazin-1-carbonyl]-4,5,6,7-tetrahydrobenzthiazol-2-yl}acetamide], under setting [1], testing at 10 µM gave an inhibition of 65%.
Turning to `CN1CCCN(C(=O)C2CCCc3sc(NC(=O)COc4ccccc4)nc32)CC1` (centres unmarked) [Example 2, N-[4-(4-Methyl-[1,4]diazepam-1-carbonyl)-4,5,6,7-tetrahydrobenzthiazol-2-yl]-2-phenoxy acetamide], where the note is “rat synaptosomes (and pons)”, the “% Inhibition of 5-HT uptake [10 μM]” value amounted to 58%.
Regarding `CN1CCN(C(=O)C2CCCc3sc(NC(=O)c4ccc5ccccc5c4)nc32)CC1` (centres unmarked) [Example 4, Naphthalene-2-carboxylic acid[4-(4-methylpiperazin-1-carbonyl)-4,5,6,7-tetrahydrobenzthiazol-2-yl]amide], the “% Inhibition of 5-HT uptake [10 μM]” value under setting [1] is on record as 48%.
On to `O=C(Cc1cccs1)Nc1nc2c(s1)CCCC2C(=O)N1CCCC1CN1CCCC1` (centres unmarked) [Example 5, N-[4-(2-Pyrrolidin-1-ylmethylpyrrolidin-1-carbonyl)-4,5,6,7-tetrahydrobenzthiazol-2-yl]-2-thiophen-2-ylacetamide], for which, under setting [1], testing at 10 µM gave an inhibition of 41%.
Still for that read-out and setting: to `COc1ccccc1CC(=O)Nc1nc2c(s1)CCCC2C(=O)N1CCN(Cc2cc(OC)c3c(c2)OCO3)CC1` (centres unmarked) [Example 6, N-{4-[4-(7-Methoxybenzo[1, 3]dioxol-5-ylmethyl)piperazin-1-carbonyl]-4,5,6,7-tetrahydrobenzthiazol-2-yl}-2-(2-methoxyphenyl)acetamide] belongs 51%; to `CC1CCCCN1CCCNC(=O)C1CCCc2sc(NC(=O)C=Cc3ccco3)nc21` (centres unmarked) [Example 23, 2-(3-Furan-2-ylacryloylamino)-4,5,6,7-tetrahydrobenzthiazol-4-carboxylic acid [3-(2-methylpiperidin-1-yl)propyl]amid], 57%.
On the same count and under the same terms, to `CN(C)CCCNC(=O)C1CCCc2sc(NC(=O)CC(C)(C)C)nc21` (centres unmarked) [Example 24, 2-(3,3-Dimethylbutyrylamino)-4,5,6,7-tetrahydrobenzthiazol-4-carboxylic acid(3-dimethylaminopropyl)amide] belongs 89%; to `COc1ccc(C(=O)Nc2nc3c(s2)CCCC3C(=O)N2CCN(Cc3ccc(Cl)cc3)CC2)cc1` (centres unmarked) [Example 25, N-{4-[4-(4-Chlorobenzyl)piperazin-1-carbonyl]-4,5,6,7-tetrahydrobenzthiazol-2-yl}-4-methoxybenzamide], 53%.
As to `O=C(Nc1nc2c(s1)CCCC2C(=O)N1CCCC1CN1CCCC1)c1ccc2ccccc2c1` (centres unmarked) [Example 26, Naphthalene-2-carboxylic acid[4-(2-pyrrolidin-1-ylmethylpyrrolidin-1-carbonyl)-4,5,6,7-tetrahydrobenzthiazol-2-yl]amide], under setting [1], the “% Inhibition of 5-HT uptake [10 μM]” value was determined as 80%.
The same measure, in the same setting: to `CN(C)CCNC(=O)C1CCCc2sc(NC(=O)COc3ccccc3)nc21` (centres unmarked) [Example 30, 2-(2-Phenoxyacetylamino)-4,5,6,7-tetrahydrobenzthiazol-4-carboxylic acid(2-dimethylaminoethyl)amide] belongs 64%.
For the molecule `CCOc1ccccc1C(=O)Nc1nc2c(s1)CCCC2C(=O)N1CCCC1CN1CCCC1` (centres unmarked) [Example 31, 2-Ethoxy-N-[4-(2-pyrrolidin-1-ylmethylpyrrolidin-1-carbonyl)-4,5,6,7-tetrahydrobenzthiazol-2-yl]benzamide], the inhibition (commonly the share of the control response that was lost under treatment) at 10 µM under setting [1] amounted to 59%.
Regarding `O=C(Nc1nc2c(s1)CCCC2C(=O)N1CCN(CC(=O)N2CCCC2)CC1)c1ccc2ccccc2c1` (centres unmarked) [Example 32, Naphthalene-2-carboxylic acid{4-[4-(2-oxo-2-pyrrolidin-1-ylethyl)piperazin-1-carbonyl]-4,5,6,7-tetrahydrobenzthiazol-2-yl}amide], the “% Inhibition of 5-HT uptake [10 μM]” value under setting [1] is on record as 51%.
The same measure, in the same setting: to `Cc1cc(C)cc(C(=O)Nc2nc3c(s2)CCCC3C(=O)NC2CCN(Cc3ccccc3SC(C)(C)C)C2)c1` (centres unmarked) [Example 35] belongs 41%.
For `CC=CC=CC(=O)Nc1nc2c(s1)CCCC2C(=O)NCC1CCN(Cc2ccc(-c3ccccc3)cc2)C1` (centres unmarked) [Example 37, 2-Hexa-2,4-dienoylamino-4,5,6,7-tetrahydrobenzthiazol-4-carboxylic acid (1-biphenyl-4-ylmethylpyrrolidin-3-yl)methylamide], the inhibition at 10 µM under setting [1] was 44%.
With `CCCCCCNc1nc2c(s1)CCCC2C(=O)N(C)C1CCN(Cc2cc3ccccc3o2)C1` (centres unmarked) [Example 41, 2-Hexanylamino-4,5,6,7-tetrahydrobenzthiazol-4-carboxylic acid(1-benzofuran-2-ylmethylpyrrolidin-3-yl)methylamide], the “% Inhibition of 5-HT uptake [10 μM]” value under setting [1] is listed as 77%.
For `CC1CCCCN1CCCNC(=O)C1CCCc2sc(NC(=O)COc3ccccc3)nc21` (centres unmarked) [Example 42, 2-(2-Phenoxyacetylamino)-4,5,6,7-tetrahydrobenzthiazol-4-carboxylic acid[3-(2-methylpiperidin-1-yl)propyl]amide], the “% Inhibition of 5-HT uptake [10 μM]” value under setting [1] stood at 42%.
As to `O=C(Nc1nc2c(s1)CCCC2C(=O)NCCN1CCCC1)c1ccc2ccccc2c1` (centres unmarked) [Example 43, 2-[(Naphthalene-2-carbonyl)amino]-4,5,6,7-tetrahydrobenzthiazol-4-carboxylic acid (2-pyrrolidin-1-ylethyl)amide], testing at 10 µM under setting [1] gave an inhibition of 63%.
On the same count and under the same terms, the value for `CN(C)c1ccc(CNC(=O)C2CCCc3sc(NC(=O)c4ccc5ccccc5c4)nc32)cc1` (centres unmarked) [Example 45, 2-[(Naphthalene-2-carbonyl)amino]-4,5,6,7-tetrahydrobenzthiazol-4-carboxylic acid 4-dimethylaminobenzylamide] was 42%.
Regarding `CN1CCCC1CCNC(=O)C1CCCc2sc(NC(=O)COc3ccc(F)cc3)nc21` (centres unmarked) [Example 46, 2-[2-(4-Fluorophenoxy)acetylamino]-4,5,6,7-tetrahydrobenzthiazol-4-carboxylic acid[2-(1-methylpyrrolidin-2-yl)ethyl]amide], the “% Inhibition of 5-HT uptake [10 μM]” value under setting [1] came out at 53%.
The same measure, in the same setting: to `CCOc1ccccc1CN1CCC(CNC(=O)C2CCCc3sc(NC(=O)COc4ccccc4)nc32)C1` (centres unmarked) [Example 51, 2-(2-Phenoxyacetylamino)-4,5,6,7-tetrahydrobenzthiazol-4-carboxylic acid[1-(2-ethoxybenzyl)pyrrolidin-3-yl]methylamide] belongs 59%; to `O=C(Nc1nc2c(s1)CCCC2C(=O)N1CCN(Cc2ccccc2F)CC1)c1ccc2ccccc2c1` (centres unmarked) [Example 53, Naphthalene-2-carboxylic acid{4-[4-(2-fluorobenzyl)piperazin-1-carbonyl]-4,5,6,7-tetrahydrobenzthiazol-2-yl}amide], 42%.
The molecule `O=C(Cc1cc(F)cc(F)c1)Nc1nc2c(s1)CCCC2C(=O)N1CCCC1CN1CCCC1` (centres unmarked) [Example 57, 2-(3,5-Difluorophenyl)-N-[4-(2-pyrrolidin-1-ylmethylpyrrolidin-1-carbonyl)-4,5,6,7-tetrahydrobenzthiazol-2-yl]acetamide] gave an inhibition at 10 µM under setting [1] of 72%.
